Data published in US7160884B2, “1-/2-substituted-1H/-2H-[1,2,3]triazolo[4,5-g]phthalazine-4,9-dione compound, process for the preparation thereof and pharmaceutical composition comprising the same” (EWHA University-Industry Collaboration Foundation, priority 2005, dated 2007).
Read-outs that look alike come from different tables or passages of the source.

How the values were obtained:
[1] = system: human gastric cancer adenocarcinoma cell line; details: cited from earlier work
[2] = system: human gastric cancer cell line (SNU-638); experiment: SRB cytotoxicity evaluation, SNU-638; type: cell-based; details: 3 days culture
Procedure: (§1) To verify the cytotoxic effect of the compounds prepared in Examples above, cytotoxicity was induced in cancer cells and SRB (Sulforhodamin B dye-staining) evaluation was conducted.
(§2) Cancer cell lines used herein (NCI, US) was human gastric cancer cell line (SNU-638), human colon cancer cell line (Col2), human fibrosarcoma cell line (HT1080), and human myelogenous leukemia cell line (HL-60).
(§3) Each compound prepared in Examples was dissolved in 10% DMSO. 10 μL of the solution and 190 μL of cell suspension (5×10^4 cells/ml) were placed in standard 96-well plate and cultured in 5% CO2 condition at 37° C. for 3 days. 190 μL of the same cell suspension was placed in at least 16 wells, followed by cultivation at 37° C. for 30 minutes, and used as zero-day control. After cultivation for a predetermined period of time, cells were fixed by adding 50 μL of 50% trichloroacetic acid in each well, followed by incubation at 4° C. for 30 minutes. Cells were washed with water 5 times, dried at room temperature, and stained by adding 100 μL of 1% acetic acid solution containing […] in each well, and then washed with 1% acetic acid after 1 hour and dried in air. 200 μL of 10 mM Tris-base was added in each well and stirred well, thereby dissolving the bound staining agent, followed by measurement of absorbance at 515 nm by using ELISA reader. Viability was determined based on the difference between the zero-day control group and 10% DMSO-treated control group. Viability about ellipticin and doxorubicin were also measured for comparison.

[3] = system: human colon cancer cell line (Col2); experiment: SRB cytotoxicity evaluation, Col2; type: cell-based; details: 3 days culture
Procedure: as §1, §2, §3

[4] = system: human fibrosarcoma cell line (HT1080); experiment: SRB cytotoxicity evaluation, HT1080; type: cell-based; details: for IC50: SRB, 3 days culture, HT1080
Procedure: as §1, §2, §3

[5] = system: human myelogenous leukemia cell line (HL-60); experiment: SRB cytotoxicity evaluation, HL-60; type: cell-based; details: 3 days culture
Procedure: as §1, §2, §3

[6] = system: human lung cancer cell line (A549); experiment: SRB cytotoxicity evaluation, A549; type: cell-based; details: for IC50: SRB, A549
Procedure: as §1, §3
(§4) Meanwhile, SRB evaluation was also conducted for human lung cancer cell line (A549), human ovarian cancer cell line (SK-OV-3), human melanoma cell line (SK-MEL-2), human central nervous system tumor cell line (XF498), and human colon cancer cell line (HCT15), and the results are shown in TABLE 2.

[7] = system: human ovarian cancer cell line (SK-OV-3); experiment: SRB cytotoxicity evaluation, SK-OV-3; type: cell-based; details: for IC50: SRB, SK-OV-3
Procedure: as §1, §3, §4

[8] = system: human melanoma cell line (SK-MEL-2); experiment: SRB cytotoxicity evaluation, SK-MEL-2; type: cell-based; details: for IC50: SRB, SK-MEL-2
Procedure: as §1, §3, §4

[9] = system: human central nervous system tumor cell line (XF498); experiment: SRB cytotoxicity evaluation, XF498; type: cell-based; details: for IC50: SRB, XF498
Procedure: as §1, §3, §4

[10] = system: human colon cancer cell line (HCT15); experiment: SRB cytotoxicity evaluation, HCT15; type: cell-based
Procedure: as §1, §3, §4

[11] = comparison among tested compounds, in words

SMILES: Cc1nc2c(n1-c1ccc(Br)cc1)C(=O)c1nccnc1C2=O [2-methyl-4,9-dehydro-1-(4-bromophenyl)-1H-imidazo[4,5-g]-quinoxaline-4,9-dione]
- cytotoxicity compared with cisplatin or doxorubicin [1]: higher than that of cisplatin or doxorubicin

SMILES: COc1cccc2c1C(=O)c1c(O)c3c(c(O)c1C2=O)C[C@@](O)(C(=O)CO)C[C@@H]3O[C@H]1C[C@H](N)[C@H](O)[C@H](C)O1 [Doxorubicin, reference compound]
- IC50 ([2]; Homo sapiens, 72 h): 52 nM
- IC50 ([3]; Homo sapiens, 72 h): 98 nM
- IC50 ([4]; Homo sapiens, HT-1080, 72 h): 22 nM
- IC50 ([5]; Homo sapiens, 72 h): 44 nM
- IC50 ([6]; Homo sapiens): 22 nM
- IC50 ([7]; Homo sapiens): 41 nM
- IC50 ([8]; Homo sapiens): 19 nM
- IC50 ([9]; Homo sapiens): 44 nM
- IC50 ([10]; Homo sapiens, HCT-15): 251 nM

SMILES: O=C1c2cnncc2C(=O)c2[nH]nnc21 [Example 1b, 1H-[1,2,3]triazolo[4,5-g]phthalazin-4,9-dione]
- IC50 ([2]; Homo sapiens, 72 h): > 5000 nM
- IC50 ([3]; Homo sapiens, 72 h): > 5000 nM
- IC50 ([4]; Homo sapiens, HT-1080, 72 h): > 5000 nM
- IC50 ([5]; Homo sapiens, 72 h): > 5000 nM
- IC50 ([6]; Homo sapiens): 9020 nM
- IC50 ([7]; Homo sapiens): 7640 nM
- IC50 ([8]; Homo sapiens): > 10000 nM
- IC50 ([9]; Homo sapiens): > 10000 nM
- IC50 ([10]; Homo sapiens, HCT-15): > 10000 nM

SMILES: Cn1nc2c(n1)C(=O)c1cnncc1C2=O [Example 2b, 2-methyl-2H-[1,2,3]triazolo[4,5-g]phthalazin-4,9-dione]
- IC50 ([2]; Homo sapiens, 72 h): 54 nM
- IC50 ([3]; Homo sapiens, 72 h): 132 nM
- IC50 ([4]; Homo sapiens, HT-1080, 72 h): 7.8 nM
- cytotoxicity rank against HT1080 [4, 11]: highest cytotoxicity
- IC50 ([5]; Homo sapiens, 72 h): 124 nM
- IC50 ([6]; Homo sapiens): 2 nM
- cytotoxicity rank against A549 [6, 11]: highest cytotoxicity
- IC50 ([7]; Homo sapiens): 0.4 nM
- cytotoxicity rank against SK-OV-3 [7, 11]: highest cytotoxicity
- IC50 ([8]; Homo sapiens): 2 nM
- cytotoxicity rank against SK-MEL-2 [8, 11]: highest cytotoxicity
- IC50 ([9]; Homo sapiens): 4 nM
- cytotoxicity rank against XF498 [9, 11]: highest cytotoxicity
- IC50 ([10]; Homo sapiens, HCT-15): 20 nM

SMILES: CCn1nnc2c1C(=O)c1cnncc1C2=O [Example 3a, 1-ethyl-1H-[1,2,3]triazolo[4,5-g]phthalazin-4,9-dione]
- IC50 ([2]; Homo sapiens, 72 h): 126 nM
- IC50 ([3]; Homo sapiens, 72 h): 341 nM
- IC50 ([4]; Homo sapiens, HT-1080, 72 h): 68 nM
- IC50 ([5]; Homo sapiens, 72 h): 56 nM
- IC50 ([6]; Homo sapiens): 6 nM
- IC50 ([7]; Homo sapiens): 3 nM
- IC50 ([8]; Homo sapiens): 8 nM
- IC50 ([9]; Homo sapiens): 34 nM
- IC50 ([10]; Homo sapiens, HCT-15): 39 nM

SMILES: CCCn1nc2c(n1)C(=O)c1cnncc1C2=O [Example 4b, 2-n-propyl-2H-[1,2,3]triazolo[4,5-g]phthalazin-4,9-dione]
- IC50 ([2]; Homo sapiens, 72 h): 43 nM
- IC50 ([3]; Homo sapiens, 72 h): 57 nM
- IC50 ([4]; Homo sapiens, HT-1080, 72 h): 33 nM
- IC50 ([5]; Homo sapiens, 72 h): 157 nM
- IC50 ([6]; Homo sapiens): 19 nM
- IC50 ([7]; Homo sapiens): 9 nM
- IC50 ([8]; Homo sapiens): 9 nM
- IC50 ([9]; Homo sapiens): 18 nM
- IC50 ([10]; Homo sapiens, HCT-15): 18 nM

SMILES: CCCCn1nc2c(n1)C(=O)c1cnncc1C2=O [Example 5b, 2-n-butyl-2H-[1,2,3]triazolo[4,5-g]phthalazin-4,9-dione]
- IC50 ([2]; Homo sapiens, 72 h): 50 nM
- IC50 ([3]; Homo sapiens, 72 h): 66 nM
- IC50 ([4]; Homo sapiens, HT-1080, 72 h): 30 nM
- IC50 ([5]; Homo sapiens, 72 h): 151 nM
- IC50 ([6]; Homo sapiens): 18 nM
- IC50 ([7]; Homo sapiens): 17 nM
- IC50 ([8]; Homo sapiens): 15 nM
- IC50 ([9]; Homo sapiens): 19 nM
- IC50 ([10]; Homo sapiens, HCT-15): 18 nM

SMILES: Cc1c2ccncc2c(C)c2c1[nH]c1ccccc12 [Ellipticin, reference compound]
- IC50 [2]: 2990 nM
- IC50 [3]: 2620 nM
- IC50 [4]: 1930 nM
- IC50 [5]: 3370 nM
- IC50 [6]: 1320 nM
- IC50 [7]: 1470 nM
- IC50 [8]: 2410 nM
- IC50 [9]: 3640 nM
- IC50 [10]: 3720 nM

SMILES: CCn1nc2c(n1)C(=O)c1cnncc1C2=O [Example 3b, 2-ethyl-2H-[1,2,3]triazolo[4,5-g]phthalazin-4,9-dione]
- IC50 ([2]; Homo sapiens, 72 h): 46 nM
- IC50 ([3]; Homo sapiens, 72 h): 170 nM
- IC50 ([4]; Homo sapiens, HT-1080, 72 h): 204 nM
- IC50 ([5]; Homo sapiens, 72 h): 90 nM
- IC50 ([6]; Homo sapiens): 18 nM
- IC50 ([7]; Homo sapiens): 3 nM
- IC50 ([8]; Homo sapiens): 4 nM
- IC50 ([9]; Homo sapiens): 17 nM
- IC50 ([10]; Homo sapiens, HCT-15): 18 nM

SMILES: CCCn1nnc2c1C(=O)c1cnncc1C2=O [Example 4a, 1-n-propyl-1H-[1,2,3]triazolo[4,5-g]phthalazin-4,9-dione]
- IC50 ([2]; Homo sapiens, 72 h): 212 nM
- IC50 ([3]; Homo sapiens, 72 h): 353 nM
- IC50 ([4]; Homo sapiens, HT-1080, 72 h): 75 nM
- IC50 ([5]; Homo sapiens, 72 h): 83 nM
- IC50 ([6]; Homo sapiens): 26 nM
- IC50 ([7]; Homo sapiens): 14 nM
- IC50 ([8]; Homo sapiens): 20 nM
- IC50 ([9]; Homo sapiens): 85 nM
- IC50 ([10]; Homo sapiens, HCT-15): 176 nM

SMILES: CCCCn1nnc2c1C(=O)c1cnncc1C2=O [Example 5a, 1-n-butyl-1H-[1,2,3]triazolo[4,5-g]phthalazin-4,9-dione]
- IC50 ([2]; Homo sapiens, 72 h): 155 nM
- IC50 ([3]; Homo sapiens, 72 h): 421 nM
- IC50 ([4]; Homo sapiens, HT-1080, 72 h): 99 nM
- IC50 ([5]; Homo sapiens, 72 h): 89 nM
- IC50 ([6]; Homo sapiens): 81 nM
- IC50 ([7]; Homo sapiens): 21 nM
- IC50 ([8]; Homo sapiens): 23 nM
- IC50 ([9]; Homo sapiens): 181 nM
- IC50 ([10]; Homo sapiens, HCT-15): 177 nM

SMILES: Cn1nnc2c1C(=O)c1cnncc1C2=O [Example 2a, 1-methyl-1H-[1,2,3]triazolo[4,5-g]phthalazin-4,9-dione]
- IC50 ([2]; Homo sapiens, 72 h): 241 nM
- IC50 ([3]; Homo sapiens, 72 h): 311 nM
- IC50 ([4]; Homo sapiens, HT-1080, 72 h): 73 nM
- IC50 ([5]; Homo sapiens, 72 h): 82 nM
- IC50 ([6]; Homo sapiens): 4 nM
- IC50 ([7]; Homo sapiens): 3 nM
- IC50 ([8]; Homo sapiens): 8 nM
- IC50 ([9]; Homo sapiens): 35 nM
- IC50 ([10]; Homo sapiens, HCT-15): 103 nM

SMILES: COc1ccc(Cn2nnc3c2C(=O)c2cnncc2C3=O)cc1 [Example 1a, 1-(4-methoxybenzyl)-1H-[1,2,3]triazolo[4,5-g]phthalazin-4,9-dione]
- IC50 ([2]; Homo sapiens, 72 h): 257 nM
- IC50 ([3]; Homo sapiens, 72 h): 2380 nM
- IC50 ([4]; Homo sapiens, HT-1080, 72 h): 330 nM
- IC50 ([5]; Homo sapiens, 72 h): 130 nM
- IC50 ([6]; Homo sapiens): 54 nM
- IC50 ([7]; Homo sapiens): 12 nM
- IC50 ([8]; Homo sapiens): 41 nM
- IC50 ([9]; Homo sapiens): 118 nM
- IC50 ([10]; Homo sapiens, HCT-15): 59 nM
